± gives the expanded uncertainty stated by the source.
Columns and labels:
[1] = 101.33 kPa, Liquid, Vibrating tube method
[2] = refractive index (Na D-line) (dimensionless); settings: 101.33 kPa, Liquid, Standard Abbe refractometry

CCCCn1cc[n+](C)c1.F[P-](F)(F)(F)(F)F [1-butyl-3-methylimidazolium hexafluorophosphate]
Settings | mass density, [1] [kg/m3] | refractive index, [2]
298.2 K | 1363.9 ± 0.9 | 1.4095 ± 0.0007
299.2 K | 1363.2 ± 0.9 | 1.4093 ± 0.0007
300.2 K | 1362.4 ± 0.9 | 1.4091 ± 0.0007
301.2 K | 1361.6 ± 0.9 | 1.4089 ± 0.0007
302.2 K | 1360.8 ± 0.9 | 1.4087 ± 0.0007
303.2 K | 1360.1 ± 0.9 | 1.4085 ± 0.0007
304.2 K | 1359.3 ± 0.9 | 1.4083 ± 0.0007
305.2 K | 1358.5 ± 0.9 | 1.4081 ± 0.0007
306.2 K | 1357.8 ± 0.9 | 1.4079 ± 0.0007
307.2 K | 1357 ± 0.9 | 1.4077 ± 0.0007
308.2 K | 1356.2 ± 0.9 | 1.4075 ± 0.0007
313.2 K | 1352.8 ± 0.9 | –
318.2 K | 1348.8 ± 0.9 | –
323.2 K | 1344.9 ± 0.9 | –
333.2 K | 1336.9 ± 0.9 | –
343.2 K | 1329 ± 0.9 | –
353.2 K | 1321.1 ± 0.9 | –

CCCCn1cc[n+](C)c1.COS(=O)(=O)[O-] [1-butyl-3-methylimidazolium methyl sulfate]
Settings | mass density, [1] [kg/m3] | refractive index, [2]
298.2 K | 1205.7 ± 1.4 | 1.4792 ± 0.0008
299.2 K | 1205 ± 1.4 | 1.4789 ± 0.0008
300.2 K | 1204.4 ± 1.4 | 1.4787 ± 0.0008
301.2 K | 1203.8 ± 1.4 | 1.4784 ± 0.0008
302.2 K | 1203.1 ± 1.4 | 1.4782 ± 0.0008
303.2 K | 1202.5 ± 1.4 | 1.4779 ± 0.0008
304.2 K | 1201.9 ± 1.4 | 1.4776 ± 0.0008
305.2 K | 1201.2 ± 1.4 | 1.4774 ± 0.0008
306.2 K | 1200.6 ± 1.4 | 1.4771 ± 0.0008
307.2 K | 1199.9 ± 1.4 | 1.4768 ± 0.0008
308.2 K | 1199.3 ± 1.4 | 1.4766 ± 0.0008
313.2 K | 1196.2 ± 1.4 | –
318.2 K | 1193 ± 1.4 | –
323.2 K | 1189.9 ± 1.4 | –
333.2 K | 1183.5 ± 1.4 | –
343.2 K | 1177 ± 1.4 | –
353.2 K | 1170.6 ± 1.4 | –

CCCCn1cc[n+](C)c1.F[B-](F)(F)F [1-butyl-3-methylimidazolium tetrafluoroborate]
Settings | mass density, [1] [kg/m3] | refractive index, [2]
298.2 K | 1201 ± 0.9 | 1.4218 ± 0.0007
299.2 K | 1200.3 ± 0.9 | 1.4216 ± 0.0007
300.2 K | 1199.6 ± 0.9 | 1.4213 ± 0.0007
301.2 K | 1199 ± 0.9 | 1.4211 ± 0.0007
302.2 K | 1198.3 ± 0.9 | 1.4208 ± 0.0007
303.2 K | 1197.6 ± 0.9 | 1.4206 ± 0.0007
304.2 K | 1196.9 ± 0.9 | 1.4204 ± 0.0007
305.2 K | 1196.2 ± 0.9 | 1.4201 ± 0.0007
306.2 K | 1195.6 ± 0.9 | 1.4199 ± 0.0007
307.2 K | 1194.9 ± 0.9 | 1.4197 ± 0.0007
308.2 K | 1194.2 ± 0.9 | 1.4195 ± 0.0007
313.2 K | 1190.8 ± 0.9 | –
318.2 K | 1187.4 ± 0.9 | –
323.2 K | 1184 ± 0.9 | –
333.2 K | 1177.2 ± 0.9 | –
343.2 K | 1170.4 ± 0.9 | –
353.2 K | 1163.6 ± 0.9 | –

CCCCn1cc[n+](C)c1.O=S(=O)([O-])C(F)(F)F [1-butyl-3-methylimidazolium trifluoromethanesulfonate]
Settings | mass density, [1] [kg/m3] | refractive index, [2]
298.2 K | 1303.8 ± 1.5 | 1.4368 ± 0.0008
299.2 K | 1303 ± 1.5 | 1.4366 ± 0.0008
300.2 K | 1302.3 ± 1.5 | 1.4364 ± 0.0008
301.2 K | 1301.5 ± 1.5 | 1.4362 ± 0.0008
302.2 K | 1300.8 ± 1.5 | 1.436 ± 0.0008
303.2 K | 1300 ± 1.5 | 1.4357 ± 0.0008
304.2 K | 1299.2 ± 1.5 | 1.4355 ± 0.0008
305.2 K | 1298.5 ± 1.5 | 1.4352 ± 0.0008
306.2 K | 1297.7 ± 1.5 | 1.435 ± 0.0008
307.2 K | 1297 ± 1.5 | 1.4348 ± 0.0008
308.2 K | 1296.2 ± 1.5 | 1.4346 ± 0.0008
313.2 K | 1292.4 ± 1.5 | –
318.2 K | 1288.6 ± 1.5 | –
323.2 K | 1284.7 ± 1.5 | –
333.2 K | 1277.1 ± 1.5 | –
343.2 K | 1269.5 ± 1.4 | –
353.2 K | 1261.9 ± 1.4 | –

Source: the NIST ThermoML archive (doi:10.1016/j.jct.2008.08.010)
